From ChEMBL document CHEMBL4219032, “Triple Reuptake Inhibitors as Potential Therapeutics for Depression and Other Disorders: Design Paradigm and Developmental Challenges” (J Med Chem, 2018)

What was measured:
[1] = target: T1, Sodium-dependent serotonin transporter (Homo sapiens, UniProt P31645)
Description: Binding affinity to SERT (unknown origin)

[2] = target: T2, Sodium-dependent noradrenaline transporter (Homo sapiens, UniProt P23975)
Description: Binding affinity to NET (unknown origin)

[3] = target: T3, Sodium-dependent dopamine transporter (Homo sapiens, UniProt Q01959)
Description: Binding affinity to DAT (unknown origin)

[4] = target: Norepinephrine transporter (Rattus norvegicus, UniProt Q9WTR4); experiment: Inhibition of rat brain NET assessed as reduction of [3H]-NE re-uptake preincubated for 30 mins followed by [3H]-NE addition measured after 5 mins by scintillation counting
Norepinephrine transporter, sequence (Q9WTR4 whole entry): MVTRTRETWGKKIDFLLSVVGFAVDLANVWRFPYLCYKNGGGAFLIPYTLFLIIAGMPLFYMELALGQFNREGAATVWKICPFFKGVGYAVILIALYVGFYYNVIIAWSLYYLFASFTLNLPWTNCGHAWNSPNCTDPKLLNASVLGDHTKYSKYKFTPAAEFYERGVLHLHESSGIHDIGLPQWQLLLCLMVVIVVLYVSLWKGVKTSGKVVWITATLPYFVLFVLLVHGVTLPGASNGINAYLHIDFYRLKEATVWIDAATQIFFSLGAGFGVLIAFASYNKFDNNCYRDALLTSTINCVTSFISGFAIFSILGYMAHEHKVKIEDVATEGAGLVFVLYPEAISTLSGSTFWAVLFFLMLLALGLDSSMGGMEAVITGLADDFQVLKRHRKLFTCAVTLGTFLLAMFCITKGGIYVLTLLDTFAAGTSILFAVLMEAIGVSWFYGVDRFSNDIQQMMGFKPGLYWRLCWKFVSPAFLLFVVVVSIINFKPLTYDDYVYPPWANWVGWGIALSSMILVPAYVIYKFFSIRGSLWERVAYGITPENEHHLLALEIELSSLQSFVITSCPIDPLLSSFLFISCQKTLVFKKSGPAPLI

[5] = target: Sodium-dependent serotonin transporter (Rattus norvegicus, UniProt P31652); experiment: Inhibition of rat brain SERT assessed as reduction of [3H]5-HT re-uptake preincubated for 30 mins followed by [3H]5-HT addition measured after 5 mins by scintillation counting
Sodium-dependent serotonin transporter (Rattus norvegicus, UniProt P31652), sequence (P31652 whole entry): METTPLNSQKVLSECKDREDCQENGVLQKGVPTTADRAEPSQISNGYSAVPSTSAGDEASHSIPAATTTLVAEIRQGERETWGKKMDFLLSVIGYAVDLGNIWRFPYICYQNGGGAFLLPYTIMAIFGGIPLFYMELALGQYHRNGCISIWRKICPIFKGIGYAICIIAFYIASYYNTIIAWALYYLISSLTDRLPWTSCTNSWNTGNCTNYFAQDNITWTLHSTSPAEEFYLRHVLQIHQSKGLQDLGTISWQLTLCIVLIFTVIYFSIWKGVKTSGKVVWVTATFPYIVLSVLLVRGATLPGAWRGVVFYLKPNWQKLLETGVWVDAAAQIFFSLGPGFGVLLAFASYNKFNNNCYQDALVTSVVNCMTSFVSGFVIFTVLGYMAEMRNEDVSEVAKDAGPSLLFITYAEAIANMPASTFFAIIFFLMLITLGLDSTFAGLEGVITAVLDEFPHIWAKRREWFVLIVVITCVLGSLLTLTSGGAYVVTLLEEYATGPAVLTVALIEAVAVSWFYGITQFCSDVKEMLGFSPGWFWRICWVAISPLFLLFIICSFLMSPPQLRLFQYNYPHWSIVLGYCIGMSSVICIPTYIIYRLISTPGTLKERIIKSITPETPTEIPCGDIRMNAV

[6] = target: Sodium-dependent dopamine transporter (Rattus norvegicus, UniProt P23977); experiment: Inhibition of rat brain DAT assessed as reduction of [3H]-DA re-uptake preincubated for 30 mins followed by [3H]-DA addition measured after 5 mins by scintillation counting
Sodium-dependent dopamine transporter (Rattus norvegicus, UniProt P23977), sequence (P23977 whole entry): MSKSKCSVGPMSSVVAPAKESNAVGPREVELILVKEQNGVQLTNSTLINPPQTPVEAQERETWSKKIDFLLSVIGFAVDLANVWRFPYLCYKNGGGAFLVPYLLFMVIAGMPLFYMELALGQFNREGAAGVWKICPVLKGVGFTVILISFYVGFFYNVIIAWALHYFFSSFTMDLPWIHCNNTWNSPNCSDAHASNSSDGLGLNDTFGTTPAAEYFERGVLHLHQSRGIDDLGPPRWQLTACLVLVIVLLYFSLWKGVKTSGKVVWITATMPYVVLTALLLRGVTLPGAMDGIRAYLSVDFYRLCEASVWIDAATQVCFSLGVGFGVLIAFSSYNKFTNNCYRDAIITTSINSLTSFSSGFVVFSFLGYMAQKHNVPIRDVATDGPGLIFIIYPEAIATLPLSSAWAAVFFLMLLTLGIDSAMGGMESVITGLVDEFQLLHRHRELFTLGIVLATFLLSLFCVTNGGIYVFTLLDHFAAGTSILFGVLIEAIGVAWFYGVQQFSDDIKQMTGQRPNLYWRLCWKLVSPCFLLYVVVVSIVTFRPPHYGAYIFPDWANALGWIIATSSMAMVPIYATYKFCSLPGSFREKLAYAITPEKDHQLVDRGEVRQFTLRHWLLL

[7] = target: T2, Sodium-dependent noradrenaline transporter; experiment: Inhibition of human NET expressed in CHO cells assessed as reduction of [3H]-NE re-uptake preincubated for 10 mins followed by [3H]-NE addition measured after 10 mins by liquid scintillation counting; assay type: cell-based
[8] = target: T3, Sodium-dependent dopamine transporter; experiment: Inhibition of human DAT expressed in CHO cells assessed as reduction of [3H]-DA re-uptake preincubated for 10 mins followed by [3H]-DA addition measured after 10 mins by liquid scintillation counting; assay type: cell-based
[9] = target: T1, Sodium-dependent serotonin transporter; experiment: Inhibition of human SERT expressed in CHO cells assessed as reduction of [3H]-5-HT re-uptake preincubated for 10 mins followed by [3H]-5-HT addition measured after 10 mins by liquid scintillation counting; assay type: cell-based
[10] = Tmax in human at 9 mg; assay type: ADME, organism-based; conditions: in vivo
Homo sapiens [11] = experiment: Anti-obesity activity in human assessed as body weight loss at 1 mg/kg, po administered for 6 months relative to control; assay type: functional
Homo sapiens [12] = experiment: Anti-obesity activity in human assessed as body weight loss at […], po administered for 6 months relative to control; assay type: functional
Homo sapiens [13] = experiment: In vivo receptor occupancy at DAT in human brain at 0.125 to 0.5 mg, iv via bolus dosing measured at 3 hrs post dose by PET analysis; assay type: functional
Homo sapiens [14] = experiment: Anti-obesity activity in human assessed as body weight loss at 0.5 mg/kg, po administered for 6 months relative to control; assay type: functional
[15] = target: T1, Sodium-dependent serotonin transporter; experiment: Inhibition of SERT (unknown origin)-mediated uptake
[16] = target: T3, Sodium-dependent dopamine transporter; experiment: Inhibition of DAT (unknown origin)-mediated uptake
[17] = target: T1, Sodium-dependent serotonin transporter; experiment: Binding affinity to human SERT
[18] = target: T2, Sodium-dependent noradrenaline transporter; experiment: Binding affinity to human NET
[19] = target: T3, Sodium-dependent dopamine transporter; experiment: Binding affinity to human DAT
[20] = Half life in human cerebrospinal fluid at 30 mg administered qd for 3 days followed by 60 mg administration at qd for next 11 days measured on day 14 post last dose by LC-MS/MS analysis; assay type: ADME, tissue-based
[21] = Tmax in human plasma at 30 mg administered qd for 3 days followed by 60 mg administration at qd for next 11 days measured on day 14 post last dose by LC-MS/MS analysis; assay type: ADME, organism-based
[22] = Ratio of drug level in human brain to plasma at 30 mg administered qd for 3 days followed by 60 mg administration at qd for next 11 days measured on day 14 post last dose by LC-MS/MS analysis; assay type: ADME; conditions: read-out: BPR
Homo sapiens [23] = experiment: In vivo receptor occupancy at DAT in human at 2 mg/day by PET imaging method; assay type: functional
Homo sapiens [24] = experiment: In vivo receptor occupancy at DAT in human at 1 mg/day by PET imaging method; assay type: functional
Homo sapiens [25] = experiment: In vivo receptor occupancy at SERT in human at 2 mg/day by PET imaging method; assay type: functional
Homo sapiens [26] = experiment: In vivo receptor occupancy at SERT in human at 1 mg/day by PET imaging method; assay type: functional
[27] = target: T2, Sodium-dependent noradrenaline transporter; experiment: Binding affinity to human NET expressed in HEK293 cells after 60 mins in presence of [3H]imipramine by liquid scintillation counting; assay type: cell-based
[28] = target: T1, Sodium-dependent serotonin transporter; experiment: biochemical; assay type: cell-based, HEK293
Description: Binding affinity to human SERT expressed in HEK293 cells after 60 mins in presence of [3H]imipramine by liquid scintillation counting

[29] = target: T3, Sodium-dependent dopamine transporter; experiment: Binding affinity to human DAT expressed in HEK293 cells after 60 mins in presence of […] by liquid scintillation counting; assay type: cell-based
Rattus norvegicus [30] = experiment: In vivo receptor occupancy at NET in ip dosed rat brain measured 60 mins post dose; assay type: functional; conditions: 1 h
Rattus norvegicus [31] = experiment: In vivo receptor occupancy at DAT in ip dosed rat brain measured 60 mins post dose; assay type: functional; conditions: 1 h
Rattus norvegicus [32] = experiment: In vivo receptor occupancy at SERT in ip dosed rat brain measured 60 mins post dose; assay type: functional; conditions: 1 h
[33] = target: T1, Sodium-dependent serotonin transporter; experiment: Inhibition of human SERT expressed in HEK cells assessed as reduction of [3H]5-HT uptake preincubated for 10 mins followed by [3H]5-HT addition measured after 10 mins by scintillation counting method; assay type: cell-based
[34] = target: T2, Sodium-dependent noradrenaline transporter; experiment: Inhibition of human NET expressed in HEK cells assessed as reduction of [3H]-NE uptake preincubated for 10 mins followed by […] measured after 10 mins by scintillation counting method; assay type: cell-based
[35] = target: T3, Sodium-dependent dopamine transporter; experiment: Inhibition of human DAT expressed in HEK cells assessed as reduction of [3H]-DA uptake preincubated for 10 mins followed by […] measured after 10 mins by scintillation counting method; assay type: cell-based

T1 sequence (P31645 whole entry): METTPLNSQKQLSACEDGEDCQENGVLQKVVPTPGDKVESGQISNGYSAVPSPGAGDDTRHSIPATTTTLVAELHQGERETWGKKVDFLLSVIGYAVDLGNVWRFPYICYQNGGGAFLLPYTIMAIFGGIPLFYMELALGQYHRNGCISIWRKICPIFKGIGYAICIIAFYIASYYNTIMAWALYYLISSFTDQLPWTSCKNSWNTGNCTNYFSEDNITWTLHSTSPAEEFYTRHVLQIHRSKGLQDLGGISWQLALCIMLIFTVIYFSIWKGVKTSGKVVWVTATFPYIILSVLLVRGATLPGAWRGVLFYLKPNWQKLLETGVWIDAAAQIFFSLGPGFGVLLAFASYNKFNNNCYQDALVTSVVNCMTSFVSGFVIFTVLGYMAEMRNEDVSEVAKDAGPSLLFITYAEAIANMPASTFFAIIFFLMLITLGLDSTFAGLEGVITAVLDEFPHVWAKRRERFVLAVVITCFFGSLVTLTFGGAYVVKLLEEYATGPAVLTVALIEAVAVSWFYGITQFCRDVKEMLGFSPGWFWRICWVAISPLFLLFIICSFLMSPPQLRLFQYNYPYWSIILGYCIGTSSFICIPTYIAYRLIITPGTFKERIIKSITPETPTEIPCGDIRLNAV
T2 sequence (P23975 whole entry): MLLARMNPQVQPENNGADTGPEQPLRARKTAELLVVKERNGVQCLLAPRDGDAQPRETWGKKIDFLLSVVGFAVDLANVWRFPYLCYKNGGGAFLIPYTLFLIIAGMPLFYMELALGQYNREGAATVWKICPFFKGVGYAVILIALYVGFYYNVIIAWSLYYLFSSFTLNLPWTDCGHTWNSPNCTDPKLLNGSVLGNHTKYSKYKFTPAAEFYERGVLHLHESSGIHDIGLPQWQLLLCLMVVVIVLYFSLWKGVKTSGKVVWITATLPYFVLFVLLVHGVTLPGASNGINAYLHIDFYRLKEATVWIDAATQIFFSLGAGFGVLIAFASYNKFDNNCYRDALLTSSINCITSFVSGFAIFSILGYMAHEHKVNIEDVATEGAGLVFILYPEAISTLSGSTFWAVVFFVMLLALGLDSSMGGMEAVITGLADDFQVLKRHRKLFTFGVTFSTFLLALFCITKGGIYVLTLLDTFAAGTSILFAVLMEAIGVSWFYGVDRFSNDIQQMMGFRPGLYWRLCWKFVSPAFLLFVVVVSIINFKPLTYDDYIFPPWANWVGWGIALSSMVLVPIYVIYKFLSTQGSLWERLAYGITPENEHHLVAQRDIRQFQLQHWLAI
T3 sequence (Q01959 whole entry): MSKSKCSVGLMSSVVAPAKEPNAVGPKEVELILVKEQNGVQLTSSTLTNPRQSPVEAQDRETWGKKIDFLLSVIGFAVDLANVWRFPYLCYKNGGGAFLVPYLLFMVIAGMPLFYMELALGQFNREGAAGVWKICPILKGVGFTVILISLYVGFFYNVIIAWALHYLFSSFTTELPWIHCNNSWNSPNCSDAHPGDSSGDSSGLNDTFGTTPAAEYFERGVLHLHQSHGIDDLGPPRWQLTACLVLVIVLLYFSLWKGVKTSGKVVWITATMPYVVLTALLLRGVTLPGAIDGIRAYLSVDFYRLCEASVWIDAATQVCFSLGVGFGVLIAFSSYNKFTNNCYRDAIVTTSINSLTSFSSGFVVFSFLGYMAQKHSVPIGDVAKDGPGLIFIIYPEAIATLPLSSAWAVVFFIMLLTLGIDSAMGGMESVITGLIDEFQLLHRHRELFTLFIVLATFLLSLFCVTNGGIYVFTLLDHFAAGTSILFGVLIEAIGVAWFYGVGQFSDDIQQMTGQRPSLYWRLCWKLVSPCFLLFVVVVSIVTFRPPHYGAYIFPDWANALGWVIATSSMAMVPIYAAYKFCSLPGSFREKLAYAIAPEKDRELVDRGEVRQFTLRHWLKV

## C#Cc1ccc([C@@H]2CN3CCC[C@@H]3c3ccccc32)cc1
[1]
  Ki: 0.27 nM
[2]
  Ki: 4.1 nM
[3]
  Ki: 1.6 nM

## COC(=O)[C@H]1CN(C)CC[C@@H]1c1ccc(Cl)cc1
[4]
  IC50: 252 nM
[5]
  IC50: 8.49 µM
[6]
  IC50: 233 nM

## CN(C)CC(c1ccc(OC(=O)c2ccccc2)cc1)C1(O)CCCCC1 (stereo not drawn)
[7]
  IC50: 644 nM
[8]
  IC50: 813 nM
[9]
  IC50: 105 nM

## CCOC[C@H]1[C@@H](c2ccc(Cl)c(Cl)c2)C[C@@H]2CC[C@H]1N2C
[1]
  IC50: 11 nM
[2]
  IC50: 3.2 nM
[10]
  Tmax: 6 h
Homo sapiens [11]
  Activity: 10.6%
Homo sapiens [12]
  Activity: 4.5%
Homo sapiens [13]
  Occ: 18 - 77%
[3]
  IC50: 8 nM
Homo sapiens [14]
  Activity: 9.2%

## C[C@]1(O)CC[C@](CN)(c2ccc(Cl)c(Cl)c2)CC1
[15]
  IC50: 1190 nM
[16]
  IC50: 518 nM

## Clc1ccc(C2CCNCC23COC3)cc1Cl (stereo not drawn)
[17]
  Ki: 63.1 nM
[18]
  Ki: 158 nM
[19]
  Ki: 158 nM

## CN1Cc2c(N)cccc2C(c2ccc(Cl)c(Cl)c2)C1 (stereo not drawn)
[1]
  Ki: 10.3 nM
[2]
  Ki: 8.8 nM
[3]
  Ki: 10.9 nM

## CN(C)C[C@]1(c2ccc(Cl)c(Cl)c2)CC[C@@](C)(O)CC1
[1]
  IC50: 34 nM
[20]
  half-life: 1080 min
[15]
  IC50: 34 nM
[21]
  Tmax: 4 h
[16]
  IC50: 41 nM
[3]
  IC50: 41 nM
[22]
  Kp at 14 day: 0.22

## CNC[C@]1(c2ccc(Cl)c(Cl)c2)CC[C@](C)(O)CC1
[20]
  half-life: 1920 min
[15]
  IC50: 210 nM
[21]
  Tmax: 6 h
[16]
  IC50: 71 nM
[22]
  Kp at 14 day: 0.46

## COC[C@H]1[C@@H](c2ccc(Cl)c(Cl)c2)C[C@@H]2CC[C@H]1N2C
[1]
  IC50: 10 nM
Homo sapiens [23]
  Occ: 80%
[2]
  IC50: 2 nM
Homo sapiens [24]
  Occ: 60%
Homo sapiens [25]
  Occ: 75%
Homo sapiens [26]
  Occ: 55%
[3]
  IC50: 10 nM

## COC[C@@H]1CN[C@@H]2CC[C@@]1(c1ccc(Cl)c(Cl)c1)C2
[17]
  Ki: 31.6 nM
[18]
  Ki: 6.31 nM
[19]
  Ki: 79.4 nM

## Clc1ccc([C@@H]2CCN[C@@H]3CCOC[C@@H]32)cc1Cl
[17]
  Ki: 31.6 nM
[18]
  Ki: 50.1 nM
[19]
  Ki: 39.8 nM

## COC[C@H]1CN[C@@H]2CC[C@@]1(c1ccc(Cl)c(Cl)c1)C2
[17]
  Ki: 10 nM
[18]
  Ki: 3.16 nM
[19]
  Ki: 5.01 nM

## CNC[C@H](c1ccc2ccccc2c1)[C@H](O)c1ccccc1
[27]
  Ki: 1.5 nM
[28]
  Ki: 2.1 nM
[29]
  Ki: 61 nM

## Clc1ccc([C@]23CNCC2C3)cc1Cl (stereo partly drawn)
Rattus norvegicus [30]
  ED50: 2 mg/kg
Rattus norvegicus [31]
  ED50: 49 mg/kg
Rattus norvegicus [32]
  ED50: 0.5 mg/kg

## c1ccc2cc([C@]34CNCC3C4)ccc2c1 (stereo partly drawn)
[33]
  IC50: 84 nM
[34]
  IC50: 6 nM
[35]
  IC50: 38 nM

## COC[C@@H]1CN[C@H]2CC[C@]1(c1ccc(Cl)c(Cl)c1)C2
[17]
  Ki: 2.09 nM
[18]
  Ki: 1.41 nM
[19]
  Ki: 5.75 nM

## C#Cc1ccc([C@H]2CN3CCC[C@H]3c3ccccc32)cc1
[1]
  Ki: 15.8 nM
[2]
  Ki: 227 nM
[3]
  Ki: 74.3 nM
